Laboratory results published in publication PMC9374667 (Communications Biology, 2022).
Several values for one entry are separate records, joined by “and”; a condition that tells them apart may be missing. Equal entries are not always repeated.

Columns and labels:
db/db mice = test: Spontaneous motor activity (CLAMS, infrared beam breaks); format: in vivo; settings: BBR 150mg/kg, individual mice 1-6
Protocol: At week 5 of treatment, basal metabolic parameters of mice were measured using the Comprehensive Lab Animal Monitoring System (CLAMS, Columbus Instruments, Columbus, OH). […] The number of times the infrared beams were broken along the X- or Y-axis was used to measure the dynamic activity of mice. The respiratory exchange rate (RER) was calculated using classical Lusk theory and equations RER = VCO2/VO2.

3T3-L1 adipocytes = test: Immunofluorescence staining of UCP1 and MitoTracker; format: cell-based, Murine; design: key: mean fluorescence intensity measured in ImageJ; settings: Figure 7d; 10uM BBR; replicates
Protocol: The 3T3-L1 adipocytes were washed with PBS for 3 times, fixed with 4% paraformaldehyde solution for 30 min, and then washed again for 3 times. […] The cells were then incubated overnight at 4 °C with the appropriate primary antibodies (1:100 dilution). The next day, the 3T3-L1 adipocytes were washed and incubated at room temperature with goat anti-rabbit secondary antibody or goat anti-mouse secondary antibody (1:1000 dilution) for 2 h and washed with PBS for 3 times. The nuclei were stained with DAPI. […] Fluorescence images were taken using a laser confocal microscope (SP8, Leica, Germany). At least four images per section were acquired for quantification, and the mean intensity were evaluated using ImageJ.

[1] = no reference given; cited from earlier work

For `COc1ccc2cc3[n+](cc2c1OC)CCc1cc2c(cc1-3)OCO2` [BBR, Berberine chloride dihydrate], the “Spontaneous motor activity (Figure 3j)” value (db/db mice; TIME 09:00:00) was 453.5 and 1366 and 855.5 and 150 and 210.5 and 798, the “Spontaneous motor activity (Figure 3j)” value (db/db mice; TIME 10:00:00) was 578.5 and 328 and 167.5 and 335.5 and 115 and 382 and the “Spontaneous motor activity (Figure 3j)” value (db/db mice; TIME 11:00:00) was 144.5 and 288.5 and 281.5 and 646 and 886.5 and 449. For the same molecule, the “Spontaneous motor activity (Figure 3j)” value (db/db mice; TIME 12:00:00) was 559 and 373.5 and 450.5 and 378.5 and 424.5 and 29.5, the “Spontaneous motor activity (Figure 3j)” value (db/db mice; TIME 13:00:00) was 620.5 and 553.5 and 835.5 and 411 and 498 and 330 and the “Spontaneous motor activity (Figure 3j)” value (db/db mice; TIME 14:00:00) was 823.5 and 171 and 498 and 447 and 397.5 and 455. For the same molecule, the “Spontaneous motor activity (Figure 3j)” value (db/db mice; TIME 15:00:00) was 870 and 677.5 and 611.5 and 326 and 849.5 and 246, the “Spontaneous motor activity (Figure 3j)” value (db/db mice; TIME 16:00:00) was 482.5 and 647.5 and 365.5 and 416.5 and 803.5 and 105 and the “Spontaneous motor activity (Figure 3j)” value (db/db mice; TIME 17:00:00) was 814 and 1029.5 and 535.5 and 427.5 and 177.5 and 328. For the same molecule, the “Spontaneous motor activity (Figure 3j)” value (db/db mice; TIME 18:00:00) was 694 and 351 and 1055.5 and 323.5 and 1331.5 and 362, the “Spontaneous motor activity (Figure 3j)” value (db/db mice; TIME 19:00:00) was 242 and 551.5 and 453.5 and 327.5 and 706.5 and 367 and the “Spontaneous motor activity (Figure 3j)” value (db/db mice; TIME 20:00:00) was 34.5 and 1152.5 and 475 and 298.5 and 432.5 and 477. The “Spontaneous motor activity (Figure 3j)” value (db/db mice; TIME 21:00:00) was 863 and 737 and 845.5 and 99.5 and 506 and 314, the “Spontaneous motor activity (Figure 3j)” value (db/db mice; TIME 22:00:00) was 320.5 and 467 and 701 and 142 and 156 and 371.5 and the “Spontaneous motor activity (Figure 3j)” value (db/db mice; TIME 23:00:00) was 428.5 and 928 and 390.5 and 869 and 897 and 315.5. For the same molecule, the “Spontaneous motor activity (Figure 3j)” value (db/db mice; TIME 1900-01-01 01:00:00) was 479.5 and 494 and 426 and 899, the “Spontaneous motor activity (Figure 3j)” value (db/db mice; TIME 1900-01-01) was 542.5 and 374 and 305.5 and 238 and 658 and 526 and the MitoTracker (3T3-L1 adipocytes) was 25.545 and 18.064 and 22.543 and 21.627 and 16.023 and 19.205 and 20.957 and 15.64 and 24.469 and 20.477 and 21.808 and 21.524. For the same molecule, the UCP1 (3T3-L1 adipocytes) was 28.534 and 25.717 and 23.768 and 26.01 and 16.988 and 23.573 and 17.055 and 20.669 and 24.128 and 20.8 and 21.801 and 21.746 and the Oral bioavailability [1] was “below 1%”.
